Counter-ions that a name gives are not always drawn.
Legend:
[1] = system: human melanoma cells (MeWo, MeWo-LM2, HT-144, SK-Mel-2, SK-Mel-334.2); test: Trans-well matrigel cell invasion assay, melanoma cells; type: cell-based
Procedure: Cancer cells were serum-starved in 0.2% FBS DMEM-based media for 12 hours. Trans-well invasion chambers (354480, BD Biosciences, Bedford, Mass.) were pre-equilibrated prior to beginning the assay by adding 0.5 mL of starvation media to the top and bottom chambers. After 30 minutes, the media in the top chamber was removed, and 0.5 mL of media containing 1×10^5 cancer cells was added into each matrigel-coated trans-well insert and incubated at 37° C. for 24 hours. For neutralization antibody and/or recombinant protein experiments, antibody/recombinant protein was added to each well at the start of the assay at the following concentrations as indicated in the figures: 5-40 μg/mL anti-ApoE 1D7 (Heart Institute, University of Ottawa), 5-40 μg/mL anti-IgG (AB-108-C, R&D Systems, Minneapolis, Minn.), 100 μM recombinant human ApoE3 (4696, BioVision, Mountain View, Calif.), and 100 μM BSA (A2153, Sigma-Aldrich). Upon completion of the assay, matrigel-coated inserts were washed with PBS, the cells at the top side of each insert were scraped off, and the inserts were fixed in 4% paraformaldehyde for 15 minutes. The inserts were then cut out and mounted onto slides using VectaShield mounting medium containing DAPI (H-1000, Vector Laboratories, Burlingame, Calif.). The basal side of each insert was imaged using an inverted fluorescence microscope (Zeiss Axiovert 40 CFL) at 5× magnification, taking three representative images for each insert. The number of invaded cells was quantified using ImageJ (NIH).
The cell invasion assay was performed as previously described in detail (Pencheva et al., 2012) using a trans-well matrigel invasion chamber system (354480, BD Biosciences). In brief, various melanoma cells were cultured in the presence of DMSO, GW3965, T0901317, or Bexarotene at 1 μM for 56 hours, after which melanoma cells were switched to starvation media (0.2% FBS) for 16 hours in the presence of each drug. Following starvation, cells were seeded into matrigel-coated trans-well inserts, and the invasion assay was allowed to proceed for 24 hours at 37° C. For ApoE antibody neutralization experiments, 40 μg/mL 1D7 anti-ApoE blocking antibody (Heart Institute, University of Ottawa, Ottawa, Canada) or 40p, g/mL anti-IgG control antibody (AB-108-C, R&D Systems, Minneapolis, Minn.) was added to each trans-well insert at the start of the assay.
(§1) The cells were then serum starved for 16 hours in 0.2% FBS media in the presence of each corresponding drug or DMSO. […] Meanwhile, cancer cells were trypsinized and viable cells were counted using trypan blue. […] The basal side of each insert was imaged using an inverted fluorescence microscope (Zeiss Axiovert 40 CFL) at 5× magnification, and the number of DAPI-positive cells was quantified using ImageJ.

[2] = system: human breast, pancreatic, renal, lung cancer and uveal melanoma cell lines; test: Trans-well matrigel invasion assay, other cancer types; type: cell-based
Procedure: The ability of cancer cells to invade through matrigel in vitro was tested by using a trans-well matrigel invasion chamber system (354480, BD Biosciences). Various cancer cell lines were serum-starved overnight in media containing 0.2% FBS. The following day, invasion chambers were pre-equilibrated prior to the assay by adding 0.5 mL of starvation media to the top and bottom wells. Meanwhile, cancer cells were trypsinized and viable cells were counted using the trypan blue dead cell exclusion dye. Cancer cells were then resuspended at a concentration of 1×10^5 cells/1 mL starvation media, and 0.5 mL of cell suspension, containing 5×10^4 cells, was seeded into each trans-well. […] The basal side of each insert was imaged using an inverted fluorescence microscope (Zeiss Axiovert 40 CFL) at 5× magnification, and the number of DAPI-positive cells was quantified using ImageJ.
as §1, with “were” for “were then”, “DMSO” for “each corresponding drug”, “GW3965.” for “DMSO.”

## CC(CCOc1cccc(CC(=O)O)c1)N(Cc1cccc(C(F)(F)F)c1Cl)CC(c1ccccc1)c1ccccc1 (centres unmarked) [SB742881 25]
[1]; MeWo cells, 1 μM for 72 hours, compared with lower potency LXR agonists
  inhibition of cancer progression phenotypes (cell invasion, endothelial recruitment): more effective

## recombinant human ApoE3: recombinant human ApoE3 (4696, BioVision)
[2]; recombinant ApoE3 100 μg/mL
  tumor cell invasion across breast, renal cell and pancreatic cancer: inhibited
[1]; recombinant ApoE3 100 μM in cell media
  invasion by metastatic LM2 cells: significantly suppressed

## O=C(O)Cc1cccc(OCCCN(Cc2cccc(C(F)(F)F)c2Cl)CC(c2ccccc2)c2ccccc2)c1 [GW3965 2, 3-[3-[N-(2-Chloro-3-trifluoromethylbenzyl)-(2,2-diphenylethyl)amino]propyloxy]phenylacetic acid hydrochloride]
[2]; RCC, PANC1, H460 cells, 1 μM for 72 hours
  tumor cell invasion in renal, pancreatic and lung cancer cells: inhibition
[1]; parental MeWo cells pre-treated 48 hours
  tumor cell invasion: decreased
